Data taken from US5763443A, “MDR resistance treatment and novel pharmaceutically active riminophenazines” (priority 1994, dated 1998).
Values after ≈ are worked out from the molar mass of the structure shown. Values joined by “and” are separate entries in the source; they are usually repeats but may differ in a detail not shown here. Identical values can stand only once. Like-named read-outs stand apart in the source and are kept apart here.

How the values were obtained:
[1] = tested on: MDR leukaemia cell line K562/MMB; assay: cells; details: for INCREASED SENSITIVITY K 562/MMB: Table VIII, values equal IC50 NONE / IC50 with VB 3 ng/ml of Table VII, 10080 min; for MDR activity / sensitivity against cell line K562/MMP: compared with known reference compound B4100
Method: A third cell line (562/MMB) used was a MDR leukemia cell line selected in vitro by progressive exposure to increasing concentrations of vinblastine in order to increase P-glycoprotein expression. This cell line was developed in the Department of Immunology, University of Pretoria from K562 (ATCC CCL 243) supplied by Highveld Biological (Pty) Ltd, Sandton.
(§1) The general procedure set forth above was followed, i.e. 7 days incubation in the4 presence of doxorubicin at 12,5 ng/ml or vinblastine at 25 or 3 ng/ml.
(§2) The effects were examined over a seven (7) day exposure to different concentrations of B4119 and B4125 on the sensitivity of a doxorubicin resistant leukaemia cell line (K562/MMB) and a lung carcinoma cell line (H69/LX4) to doxorubicin (dox) and vinblastine (VB) using the MTT assay.

[2] = tested on: human small cell lung cancer cell line H69/P; assay: MTT assay, 7 day exposure, sensitivity of parent cell line H69/P to chemotherapeutic agents; type: cell-based; details: H69/P; CsA 5 μg/ml, clofazimine 1 μg/ml or B669 0.5 μg/ml
Method: (§3) The riminophenazines of the above formula (I), contain an imino group. […] The potency of compounds of the above general formula, as inhibitors of multi-drug resistance, was assessed by sensitization of a P-glycoprotein positive cell line to drugs associated with this form of resistance. A human small cell lung cancer cell line H 69/P as well as a multi-drug resistance (MDR) sub-line H69/LX4 were used. These cell lines were obtained from the Medical Research Council Clinical Oncology and Radiotherapeutics Unit, Hills Road, Cambridge, England. The H69/LX4 line was selected in vitro by progressive exposure to increasing concentrations of doxorubicin in order to increase P-glycoprotein expression.
(§4) The cell lines used were human small cell lung cancer cell line HP69/P and a multi-drug resistant (MDR) sub-line H69/LX4, both of which were supplied by the MRC Clinical Oncology and Radiotherapeutics Unit, Hills Road, Cambridge, England. The maintenance of the cell lines and drug response assays was done as described by Twentyman et al in British Journal of Cancer Volume 65 pages 335-340. The H69/LX4 line was originally described by Twentyman et al in British Journal of Cancer Volume 53, pages 529-637 (1986).
(§5) The data in parenthesis represents fold sensitivity compared with the chemotherapeutic agent without the MDR inhibitor.

H69/LX4 cells = assay: [14C]-vinblastine accumulation in MDR cell line; type: cell-based, human; details: 1 hour pretreatment, 30 minutes [14C]-vinblastine
Method: The effect of riminophenazines on the accumulation of [^14 C]-vinblastine was investigated. For these experiments, both of the above cell lines (H69/LX4 and H69/P) were prepared as described by Coley et al (Biochem. Pharmacal 38, 4467-4475 (1989)). After a 1 hour pretreatment with the MDR reversal agents, cells (1×10^6 /ml) were exposed to […] [^14 C]-vinblastine (1 μCi specific activity) for 30 minutes.

[3] = tested on: multi-drug resistant (MDR) lung carcinoma cell line H69/LX4; assay: in vitro; details: for IC50: Homo sapiens; for INCREASED SENSITIVITY H69/Lx4: Table VIII, values equal IC50 NONE / IC50 with VB 25 ng/ml of Table VII, 10080 min
Method: as §3, §4, §5
(§6) The results obtained, are illustrated graphically in FIGS. 4 to 7 of the accompanying drawings.
as §1, §2

[4] = bio-availability (no method given)
in vitro = details: human, h69/lx4 cells
Method: as §3, §4, §5, §6, §1, §2

[5] = H69/LX4, CsA 5 μg/ml, clofazimine 1 μg/ml or B669 0.5 μg/ml
[6] = 168 h, read-out: IC 50 H69/Lx4 NONE
[7] = read-out: IC 50 H69/Lx4 DOX 12 ng/ml
[8] = read-out: IC 50 H69/Lx4 VB 25 ng/ml

c1ccc(Nc2cc3nc4ccccc4n(-c4ccccc4)c-3cc2=NC2CCCCC2)cc1 [Compound B669]
IC50 ([1]; Homo sapiens, K562, read-out: IC 50 K562/MMB VB 3 ng/ml, Table VII, with vinblastine 3 ng/ml): 0.023 µg/mL (≈ 0.0517 µM) | INCREASED SENSITIVITY K 562/MMB [1]: 6.04 | MDR activity / sensitivity against cell line K562/MMP [1]: good activity | fold sensitivity to Cyclophosphamide compared with agent without MDR inhibitor [2]: 1.0 fold | fold sensitivity to Daunorubicin compared with agent without MDR inhibitor [2]: 1.2 fold | fold sensitivity to Doxorubicin compared with agent without MDR inhibitor [2]: 1.0 fold | fold sensitivity to Etoposide compared with agent without MDR inhibitor [2]: 1.2 fold | fold sensitivity to Methotrexate compared with agent without MDR inhibitor [2]: 1.0 fold | fold sensitivity to Mitomycin C compared with agent without MDR inhibitor [2]: 0.7 fold | fold sensitivity to Vinblastine compared with agent without MDR inhibitor [2]: 1.1 fold | vinblastine accumulation in the MDR cell line (H69/LX4 cells): significant enhancement | fold sensitivity to Cyclophosphamide compared with agent without MDR inhibitor [3, 5]: 1.1 fold | fold sensitivity to Daunorubicin compared with agent without MDR inhibitor [3, 5]: 2.4 fold | fold sensitivity to Doxorubicin compared with agent without MDR inhibitor [3, 5]: 6.9 fold | fold sensitivity to Etoposide compared with agent without MDR inhibitor [3, 5]: 14.4 fold | fold sensitivity to Methotrexate compared with agent without MDR inhibitor [3, 5]: 0.9 fold | fold sensitivity to Mitomycin C compared with agent without MDR inhibitor [3, 5]: 2.5 fold | fold sensitivity to Vinblastine compared with agent without MDR inhibitor [3, 5]: 13.7 fold and ~13 fold | IC50 [3, 6]: 1 µg/mL (≈ 2.25 µM) | IC50 [3, 7]: 0.996 µg/mL (≈ 2.24 µM) | IC50 [3, 8]: 0.254 µg/mL (≈ 0.571 µM) | INCREASED SENSITIVITY H69/Lx4 [3]: 3.94

CC1(C)CC(N=c2cc3n(-c4cc(Cl)c(Cl)c(Cl)c4)c4ccccc4nc-3cc2Nc2cc(Cl)c(Cl)c(Cl)c2)CC(C)(C)N1 [Compound B4169, N,5-bis(3,4,5-trichiorophenyl)-3,5-dihydro-3-[(2',2',6',6'-tetramethyl-4-piperidyl)-imino]-2-phenazinamine]
INCREASED SENSITIVITY K 562/MMB [1]: 24.66 | MDR activity / sensitivity against cell line K562/MMP [1]: increased substantially and unexpectedly | bio-availability [4]: good bio-availability | MNTC at 168 h (in vitro): > 12.5 µg/mL | MDR reversal properties ([3]; H69/LX4, with doxorubicin 12,5 ng/ml or vinblastine 25 ng/ml, FIGS. 4 to 7): Very good MDR reversal properties | IC50 [3, 6]: 1.57 µg/mL (≈ 2.21 µM) | IC50 [3, 7]: 1.08 µg/mL (≈ 1.53 µM) | IC50 [3, 8]: 0.213 µg/mL (≈ 0.301 µM) | INCREASED SENSITIVITY H69/Lx4 [3]: 7.36
